Reference: patent US8188059B2, “Compounds and methods for modulating expression of GCGR” (Isis Pharmaceuticals, Inc., priority 2006, dated 2012)
Strand notation (5' to 3'): a small letter for the sugar, then the base; units joined by * are phosphorothioate-linked, units joined directly phosphodiester-linked; [ ] holds rarer units or linkages, { } end groups; capitals alone tell only the bases. e = 2'-O-(2-methoxyethyl) (MOE); [5mC] = 5-methylcytosine; d = 2'-deoxy (DNA)

Tests used:
DGAT2 mRNA = assay: Antisense inhibition of DGAT2 in A10 cells at 75 nM (Example 22, Table 81); assay type: cell-based, rat; settings: approximately 24 hours
Protocol: Short antisense compounds targeted to a DGAT2 nucleic acid were tested for their effects on DGAT2 mRNA in vitro. Cultured A10 cells in a 96-well plate were treated with 75 nM of short antisense compound. After a treatment period of approximately 24 hours, RNA was isolated from the cells and DGAT2 mRNA levels were measured by quantitative real-time PCR, as described herein. DGAT2 mRNA levels were adjusted according to total RNA content as measured by RIBOGREEN®. […]

rat DGAT2 mRNA [1] = assay: Dose-dependent inhibition of DGAT2 in A10 cells, 0.62-150 nM (Example 22, Table 83); assay type: cell-based
Protocol: Additional short antisense compounds targeted to DGAT2 mRNA were tested in vitro. A10 cells were prepared as described above and treated with 0.62, 1.85, 5.56, 16.67, 50.0, and 150.0 nM short antisense compounds to determine if DGAT2 inhibition occurs in a dose-dependent manner. DGAT2 mRNA was measured using quantitative real-time PCR, as described herein. […] Results are presented as percent inhibition of rat DGAT2, relative to untreated control cells.

rat DGAT2 mRNA [2] = assay: Dose-dependent inhibition of DGAT2 in A10 cells, 6.25-200 nM (Example 22, Table 82); assay type: cell-based
Protocol: Additional short antisense compounds targeted to DGAT2 mRNA were tested in vitro in a dose-response experiment. A10 cells were prepared as described above and treated with 6.25, 12.5, 25.0, 50.0, 100.0, and 200.0 nM short antisense compounds to determine if DGAT2 inhibition occurs in a dose-dependent manner. […] Results are presented as percent inhibition, relative to untreated control cells.

[3] = Triglyceride, cholesterol and glucose levels, pre-bleed and post-bleed (Example 4, Table 34); assay type: in vivo, mouse; settings: C57/BL6 mice, single i.p. dose, 48 hours
Protocol: (§1) Eight-week old male C57/BL6 mice (Jackson Laboratory, Bar Harbor, Me.) were administered a single dose of GCGR oligonucleotide by intraperitoneal injection at a concentration of […]. Each dose group consisted of four animals. Shown in Table 31 are the sequences, motifs and conjugates of the GCGR antisense compounds used in this study. Bolded residues indicate 2′-O-methoxyethyl (2′-MOE) moieties. All compounds comprise phosphorothioate internucleoside linkages throughout and each cytosine is replaced with 5-methylcytosine. ISIS 386626, ISIS 386627 and ISIS 386628 further comprise a C16 conjugate group attached to the 2′-O position of the sugar via a diamide linkage (2′-OCH2C(═O)N(H)(CH2)4N(H)C(═O)—(CH2)15CH3). GCGR antisense compounds target published GCGR sequences, including Genbank® Accession No. BC031885.1 (SEQ ID NO: 7).
(§2) Mice were sacrificed 48 hours following injection to determine serum transaminase levels (Table 32); liver, white adipose tissue (WAT), spleen and kidney weight (Table 33); cholesterol, triglyceride and glucose levels (Table 34); GCGR mRNA levels (Tables 35-41); and full-length and total oligonucleotide concentration in liver and kidney (Table 42). Endpoints were assessed using methods described herein and well known to those of ordinary skill in the art. Data is included from a pre-treatment bleed (Pre-Bleed) and post-treatment bleed (Post-Bleed).

GCGR mRNA = GCGR mRNA levels in liver of C57/BL6 mice, single i.p. dose (Example 4, Tables 35-41); assay type: in vivo, mouse; settings: liver, single i.p. dose, 48 hours
Protocol: as §1, §2
To determine whether the phenotypic changes shown above correlated with a decrease in GCGR mRNA, treated animals were evaluated for levels of target mRNA in liver by real time PCR according to methods described herein. Tables 35 to 41 show results from direct comparisons of the antisense compounds targeting GCGR nucleic acid for their effect on target expression. Results are expressed as percent of saline control.

mouse SGLT2 mRNA = assay: Mouse SGLT2 mRNA levels in kidney, additional 1-10-1 and 2-8-2 MOE gapmers, Balb/c mice (Example 15, Table 68); assay type: in vivo
Protocol: 1-10-1 and 2-8-2 MOE gapmer short antisense compounds were designed to target different regions of the mouse SGLT2 RNA but have complementarity across species. […] All cytidine residues are 5-methylcytidines.
The short antisense compounds were analyzed for their effect on mouse SGLT2 mRNA levels in vivo. Data was taken from three experiments in which male 6-week old Balb/c mice were dosed twice per week for three weeks with 0.5, 0.1, or 0.02 umol/kg of either a 1-10-1 or 2-8-2 MOE gapmer given by intraperitoneal injection. Mice were sacrificed 48 hours following last administration and evaluated for SGLT2 levels in kidney. Target levels were determined by RT, real-time PCR as described by other examples herein. PCR results were normalized to an internal ISIS control.

Substance	DGAT2 mRNA, % Control (DGAT2 mRNA) [%]	percent inhibition of rat DGAT2 (rat DGAT2 mRNA [1]; 0.62 nM)	percent inhibition of rat DGAT2 (rat DGAT2 mRNA [1]; 1.85 nM)	percent inhibition of rat DGAT2 (rat DGAT2 mRNA [1]; 5.56 nM)	percent inhibition of rat DGAT2 (rat DGAT2 mRNA [1]; 16.67 nM)	percent inhibition of rat DGAT2 (rat DGAT2 mRNA [1]; 50 nM)	percent inhibition of rat DGAT2 (rat DGAT2 mRNA [1]; 150 nM)	also measured
372491 (antisense eA*e[5mC]*eA*dT*dG*dA*dG*dG*dA*dT*dG*dA*d[5mC]*eA*e[5mC]*eT) [compound 372491]	80	–	–	–	–	–	–	–
372500 (antisense eG*eT*eG*dT*dG*dT*d[5mC]*dT*dT*d[5mC]*dA*d[5mC]*d[5mC]*eA*eG*e[5mC]) [compound 372500]	16	0	0	0	18	64	88	–
372501 (antisense eT*eT*eG*dT*dG*dT*dG*dT*d[5mC]*dT*dT*d[5mC]*dA*e[5mC]*e[5mC]*eA) [compound 372501]	28	1	5	10	11	25	68	–
372503 (antisense eG*e[5mC]*eA*dG*dG*dT*dT*dG*dT*dG*dT*dG*dT*e[5mC]*eT*eT) [compound 372503]	35	7	10	4	25	54	80	–
372508 (antisense eA*eG*eT*dT*d[5mC]*d[5mC]*dT*dG*dG*dT*dG*dG*dT*e[5mC]*eA*eG) [compound 372508]	35	0	0	6	14	39	71	–
372516 (antisense eT*eA*e[5mC]*dA*dG*dA*dA*dG*dG*d[5mC]*dA*d[5mC]*d[5mC]*e[5mC]*eA*eG) [compound 372516]	27	1	10	0	4	35	81	–
372524 (antisense eG*e[5mC]*e[5mC]*dA*dG*dG*d[5mC]*dA*dT*dG*dG*dA*dG*e[5mC]*eT*e[5mC]) [compound 372524]	21	7	0	5	30	68	91	–
372530 (antisense eT*e[5mC]*eG*dG*d[5mC]*d[5mC]*d[5mC]*d[5mC]*dA*dG*dG*dA*dG*e[5mC]*e[5mC]*e[5mC]) [compound 372530]	35	0	2	0	10	38	78	–
372546 (antisense eT*eT*eG*dG*dT*d[5mC]*dT*dT*dG*dT*dG*dA*dT*eT*eG*eT) [compound 372546]	34	0	2	11	4	48	78	–
372562 (antisense eG*eT*d[5mC]*dT*dT*dG*dG*dA*dG*dG*dG*d[5mC]*e[5mC]*eG) [compound 372562]	–	–	–	–	–	–	–	percent inhibition of DGAT2 (rat DGAT2 mRNA [2]; 6.25 nM): 0; percent inhibition of DGAT2 (rat DGAT2 mRNA [2]; 12.5 nM): 0; percent inhibition of DGAT2 (rat DGAT2 mRNA [2]; 50.0 nM): 36; percent inhibition of DGAT2 (rat DGAT2 mRNA [2]; 100.0 nM): 48; percent inhibition of DGAT2 (rat DGAT2 mRNA [2]; 200.0 nM): 75; percent inhibition of DGAT2 (rat DGAT2 mRNA [2]; […]): 0
372563 (antisense eA*eG*d[5mC]*d[5mC]*dA*dG*dG*dT*dG*dA*d[5mC]*dA*eG*eA) [compound 372563]	48	0	0	0	1	4	46	–
372568 (antisense eG*eA*d[5mC]*dA*d[5mC]*dT*dG*d[5mC]*dA*dG*dG*d[5mC]*e[5mC]*eA) [compound 372568]	–	–	–	–	–	–	–	percent inhibition of DGAT2 (rat DGAT2 mRNA [2]; 6.25 nM): 0; percent inhibition of DGAT2 (rat DGAT2 mRNA [2]; 12.5 nM): 0; percent inhibition of DGAT2 (rat DGAT2 mRNA [2]; 50.0 nM): 26; percent inhibition of DGAT2 (rat DGAT2 mRNA [2]; 100.0 nM): 72; percent inhibition of DGAT2 (rat DGAT2 mRNA [2]; 200.0 nM): 69; percent inhibition of DGAT2 (rat DGAT2 mRNA [2]; […]): 15
372569 (antisense e[5mC]*eA*dT*dG*dA*dG*dG*dA*dT*dG*dA*d[5mC]*eA*e[5mC]) [compound 372569]	104	–	–	–	–	–	–	–
372578 (antisense eT*eG*dT*dG*dT*d[5mC]*dT*dT*d[5mC]*dA*d[5mC]*d[5mC]*eA*eG) [compound 372578]	59	0	0	0	2	7	42	–
ISIS 386626: GCGR 2-10-2 MOE gapmer with C16 conjugate group at the 2′-O position via a diamide linkage (antisense GCTTCTCCATCATA; chemistry not fully specified)	–	–	–	–	–	–	–	post-bleed glucose levels [3]: decreased in a dose-dependent manner; GCGR mRNA expression (GCGR mRNA): greatest decrease
ISIS 388627 (antisense eG*e[5mC]*dA*d[5mC]*dA*d[5mC]*dA*dG*d[5mC]*dT*eG*e[5mC])	–	–	–	–	–	–	–	% change in SGLT2 expression relative to saline (mouse SGLT2 mRNA; 0.02 umol/kg i.p. twice per week for three weeks): −38%; % change in SGLT2 expression relative to saline (mouse SGLT2 mRNA; 0.1 umol/kg i.p. twice per week for three weeks): −50%; % change in SGLT2 expression relative to saline (mouse SGLT2 mRNA; 0.5 umol/kg i.p. twice per week for three weeks): −65%
